Tests used:
[1] = Rat PK test (cassette dosing); type: in vivo; details: male SD rats, plasma; for Tmax: oral 1 mg/kg and iv 0.1 mg/kg given, route not stated for Tmax, read-out: Tmax (time to reach maximum plasma concentration); for clearance / MRT: intravenous 0.1 mg/kg; for clearance: read-out: CL total (total clearance) (converted); for MRT: read-out: MRT iv (mean residence time)
Experimental: As the rat, 8-week-old male SD rats (Japan SLC, Inc.) were used. They were fed on a solid commercially available diet (CE-2, CLEA Japan, Inc.) and allowed to freely ingest tap water as the drinking water. An intravenous administration solution for the rats was prepared by weighing a test compound, dissolving same in dimethylacetamide (DMA) (Wako Pure Chemical Industries, Ltd.), adding the same volume of 1,3-butanediol (Wako Pure Chemical Industries, Ltd.) and mixing by stirring to give a DMA:1,3-butanediol (1:1, v/v) solution. An oral administration solution was prepared by weighing a test compound, pulverizing same in an agate mortar, and gradually adding 0.5 w/v % aqueous methylcellulose solution to give a suspension. For intravenous administration, the solution was administered into femoral vein of the rats at 0.1 mg/0.5 mL/kg (salt converted to free form). For oral administration, the suspension was administered to the rats at 1 mg/5 mL/kg (salt converted to free form). The cassette dosing method was used for the both administration routes, and the test compound was administered in the following manner. • Compound of Example 20 (intravenous: 8 compounds cassette administration, oral: 5 compounds cassette administration) • Compound of Example 22 (intravenous: 5 compounds cassette administration, oral: 5 compounds cassette administration) • Compound of Example 31 (intravenous: 10 compounds cassette administration, oral: 5 compounds cassette administration) • Compound of Example 36 (intravenous: 10 compounds cassette administration, oral: 5 compounds cassette administration) • Compound of Example 44 (intravenous: 10 compounds cassette administration, oral: 5 compounds cassette administration) • Compound of Example 55 (intravenous: 6 compounds cassette administration, oral: 4 compounds cassette administration) • Compound of Example 74 (intravenous: 10 compounds cassette administration, oral: 5 compounds cassette administration) • Compound of Example 76 (intravenous: 9 compounds cassette administration, oral: 4 compounds cassette administration) • Compound of Example 77 (intravenous: 10 compounds cassette administration, oral: 5 compounds cassette administration) • Compound of Example 102 (intravenous: 10 compounds cassette administration, oral: 5 compounds cassette administration) • Compound of Example 109 (intravenous: 7 compounds cassette administration, oral: 4 compounds cassette administration)
In the case of intravenous administration, blood samples were collected from the tail vein at 5, 10, 15, 30 min, 1, 2, 4, 8 hr after administration, an anticoagulation treatment with heparin sodium (Shimizu Pharmaceutical Co., Ltd.) was performed, and plasma was collected after centrifugation and subjected to the measurement of drug concentration. In the case of oral administration, blood samples were collected from the tail vein at 15, 30 min, 1, 2, 4, 8 hr after administration, an anticoagulation treatment with heparin sodium was performed, and plasma was collected after centrifugation and subjected to the measurement of drug concentration.
All drug concentrations were measured by LC-MS/MS analysis. For a pharmacokinetics test, the plasma (50 μL) was placed in a tube, acetonitrile (150 μL) containing internal standard solution was added and they were mixed on a vortex mixer. Thereafter, the mixture was centrifuged (5000 rpm, 5 min, 4° C.). The supernatant (60 μL) after centrifugation was added to 10 mmol/L ammonium formate (160 μL) added earlier and mixed therewith. This sample was injected to LC/MS/MS. […]

[2] = system: Male SD rats; assay: Rat defecation experiment; type: in vivo; details: mean ± standard error
Experimental: Rat Defecation Experiment
Male SD rats (5-6 weeks old) were used after an acclimation period for about 1 week. A test drug (1 mg/kg or 3 mg/kg) was suspended in 0.5% methylcellulose solution and orally administered at a volume of 5 mL/kg, and the number of feces 2 hr later was counted. Only 0.5% methylcellulose was administered to a solvent administration group.

SMILES	Tmax [1]	clearance [1]	MRT [1]	number of feces 2 hr later ([2]; 1 mg/kg oral)	number of feces 2 hr later ([2]; 3 mg/kg oral)
Cn1cc(-c2ccc(C(F)c3cc(C(=O)N[C@H]4CCOC[C@@H]4O)nc4ccoc34)cc2)nn1 (single isomer, unassigned) [Example 55, 1,5-anhydro-2,3-dideoxy-3-(((7-(fluoro(4-(1-methyl-1H-1,2,3-triazol-4-yl)phenyl)methyl)furo[3,2-b]pyridin-5-yl)carbonyl)amino)-L-threo-pentitol]	1.7 h	30.2 mL/min/kg	0.6 h		
Cn1cc(-c2ccc(Cc3cc(C(=O)N[C@H]4CCOC[C@@H]4O)nc4ccoc34)cc2)nn1 [Example 20, 1,5-anhydro-2,3-dideoxy-3-(((7-(4-(1-methyl-1H-1,2,3-triazol-4-yl)benzyl)furo[3,2-b]pyridin-5-yl)carbonyl)amino)-L-threo-pentitol]	2 h	4.1 mL/min/kg	1.8 h	10.6 ± 1.3	12.1 ± 1.1
Cn1cc(-c2ccc(Cc3cc(C(=O)N[C@H]4CCOC[C@@H]4O)nc4ccoc34)cn2)cn1 [Example 36, 1,5-anhydro-2,3-dideoxy-3-(((7-((6-(1-methyl-1H-pyrazol-4-yl)pyridin-3-yl)methyl)furo[3,2-b]pyridin-5-yl)carbonyl)amino)-L-threo-pentitol]	1.3 h	5.45 mL/min/kg	1.9 h		
O=C(N[C@H]1CCOC[C@@H]1O)c1cc(Cc2ccc(C(=O)NC[C@@H]3CCCO3)c(F)c2)c2occc2n1 [Example 102, 1,5-anhydro-2,3-dideoxy-3-(((7-(3-fluoro-4-(((2S)-tetrahydrofuran-2-ylmethyl)carbamoyl)benzyl)furo[3,2-b]pyridin-5-yl)carbonyl)amino)-L-threo-pentitol]	1 h	11.7 mL/min/kg	0.9 h	8.9 ± 1.3	12.4 ± 0.9
COCCNC(=O)c1ccc(Cc2cc(C(=O)N[C@H]3CCOC[C@@H]3O)nc3ccoc23)cc1F [Example 109, 1,5-anhydro-2,3-dideoxy-3-(((7-(3-fluoro-4-((2-methoxyethyl)carbamoyl)benzyl)furo[3,2-b]pyridin-5-yl)carbonyl)amino)-L-threo-pentitol]	1 h	6.73 mL/min/kg	1.5 h		

Second part, led by results:

Tmax [1]	clearance [1]	MRT [1]	SMILES	number of feces 2 hr later ([2]; 1 mg/kg oral)	number of feces 2 hr later ([2]; 3 mg/kg oral)
2 h	4.67 mL/min/kg	1.9 h	O=C(N[C@H]1CCOC[C@@H]1O)c1cc(Cc2ccc(-n3cccn3)cc2)c2c(n1)CCO2 [Example 22, 1,5-anhydro-2,3-dideoxy-3-(((7-(4-(1H-pyrazol-1-yl)benzyl)-2,3-dihydrofuro[3,2-b]pyridin-5-yl)carbonyl)amino)-L-threo-pentitol]		
1 h	3.33 mL/min/kg	1.5 h	Cn1cc(-c2ccc(Cc3cc(C(=O)N[C@H]4CCOC[C@@H]4O)nc4c3OCC4)cc2)nn1 [Example 31, 1,5-anhydro-2,3-dideoxy-3-(((7-(4-(1-methyl-1H-1,2,3-triazol-4-yl)benzyl)-2,3-dihydrofuro[3,2-b]pyridin-5-yl)carbonyl)amino)-L-threo-pentitol]	10.0 ± 1.4	
1.3 h	4.77 mL/min/kg	1.3 h	Cn1cc(-c2ccc(Cc3cc(C(=O)N[C@H]4CCOC[C@@H]4O)nc4c3OCC4)cc2)cn1 [Example 44, 1,5-anhydro-2,3-dideoxy-3-(((7-(4-(1-methyl-1H-pyrazol-4-yl)benzyl)-2,3-dihydrofuro[3,2-b]pyridin-5-yl)carbonyl)amino)-L-threo-pentitol]		
0.8 h	14 mL/min/kg	0.9 h	Cn1cnc(-c2ccc(Cc3cc(C(=O)N[C@H]4CCOC[C@@H]4O)nc4c3OCC4)cc2)c1 [Example 74, 1,5-anhydro-2,3-dideoxy-3-(((7-(4-(1-methyl-1H-imidazol-4-yl)benzyl)-2,3-dihydrofuro[3,2-b]pyridin-5-yl)carbonyl)amino)-L-threo-pentitol]		
0.8 h	5.58 mL/min/kg	1.2 h	COCCNC(=O)c1ccc(Cc2cc(C(=O)N[C@H]3CCOC[C@@H]3O)nc3c2OCC3)cc1F [Example 76, 1,5-anhydro-2,3-dideoxy-3-(((7-(3-fluoro-4-((2-methoxyethyl)carbamoyl)benzyl)-2,3-dihydrofuro[3,2-b]pyridin-5-yl)carbonyl)amino)-L-threo-pentitol]	8.3 ± 0.8	10.3 ± 0.9
1 h	8.13 mL/min/kg	0.8 h	O=C(N[C@H]1CCOC[C@@H]1O)c1cc(Cc2ccc(C(=O)NC[C@@H]3CCCO3)c(F)c2)c2c(n1)CCO2 [Example 77, 1,5-anhydro-2,3-dideoxy-3-(((7-(3-fluoro-4-(((2S)-tetrahydrofuran-2-ylmethyl)carbamoyl)benzyl)-2,3-dihydrofuro[3,2-b]pyridin-5-yl)carbonyl)amino)-L-threo-pentitol]	13.9 ± 1.5	12.3 ± 1.6

Source: patent publication US12378256B2, “Heterocyclic compound” (Takeda Pharmaceutical Company Limited, priority 2017, dated 2025)
